Each block holds one compound with its values, some of them ahead of it.
What was measured:
[1] = molecular target: FKBP (Homo sapiens, UniProt P62942); assay: PPIase Inhibition Assay; type: biochemical
Protocol: 1) Inhibition of PPlase Activity
This assay follows in principle the procedure described in Kofron et al., 1991, Biochemistry 30:6127. The three main reagents used are PPIase, a substrate for PPIase, and a selected inhibitor compound of the present invention. The basic principle behind this assay is the conversion of the cis isomer of the substrate to the trans form, which conversion is catalyzed by PPIase. Essentially, inhibition of this PPIase activity is measured for the selected compounds. A peptide chymotrypsin substrate containing a proline in the P2 position is only cleaved by chymotrypsin when the Phe-Pro bond is in the trans isomeric configuration. In the presence of excess chymotrypsin, all of the trans peptide isomers are cleaved within approximately five seconds, leaving only cis forms.
The cis peptide will spontaneously convert to the trans isomer at a slow rate. The cis to trans conversion is catalyzed by isomerases at a much faster rate than this spontaneous conversion. Proteins with PPIase activity are examples of such isomerases. After isomerization, the peptide is cleaved by chymotrypsin releasing p-nitroaniline which can be monitored at 390 nm. The rate of release is then calculated using a first order rate plus offset equation utilizing the ENZFITTER program (Leatherbarrow, BIOSOFT, Cambridge, United Kingdom).
In a plastic cuvette are added 950 ul of ice cold assay buffer (25 mM HEPES, pH 7.8, 100 mM NaCl), 10 uL of FKBP (2.5 uM in 10 mM Tris-Cl pH 7.5,100 mM NACl, 1 mM dithiothreitol), 25 ul of chymotrypsin (50 mg/ml in 1 mM HCl) and 10 ul of the test compound at various concentrations in dimethyl sulphoxide. The reaction is initiated by addition of 5 ul of substrate (Succinyl-Ala-Phe-Pro-Phe-para-nitroanilide, 5 mg/ml in 235 mM LiCl in trifluoroethanol).
The absorbance at 390 nm versus time is monitored for 90 sec using a Beckman DU70 spectrophotometer. The absorbance versus time data files are transferred to an IBM XT computer and the rate constants determined using the commercial Enzfitter program. For each set of data, the uncatalyzed rate of conversion is measured and the uninhibited enzymatic rate determined. The data are expressed as % Inhibition and are calculated as follows: [formula] where kobs is the rate in the presence of a selected test compound, kuncat is the rate in the absence of enzyme, and kuninh is the rate in the presence of enzyme and absence of inhibitor. Data are plotted as percent inhibition versus concentration of inhibitor. The values of the concentration of inhibitor required for 50% inhibition of enzyme activity (IC50) were determined by nonlinear least squares regression analysis.

[2] = system: human T-cells; assay: Suppression of Human T-Cell Proliferation Assay (mitogen-induced, [3H]-thymidine incorporation); type: cell-based; conditions: Homo sapiens, T-cell; 72 hours incubation; mitogen stimulated; read-out: IC50 (inhibition of [3H]-thymidine incorporation of T-cells by 50%)
From the text: 2) Human T Lymphocyte Inhibition
Inhibition of mitogen-induced T-cell proliferation can be used to profile immunosuppressive activity of test compounds. In the description of the assay which follows, mitogen-induced T-cell proliferation was used to test the inhibitory potencies of select compounds of the present invention.
In an assay similar to that described by Bradley in Mishell et al. (Eds.), 1980, Selected Methods in Cellular Immunology, pp 156-161, W. H. Freeman & Co., San Fransisco, Calif., T-cells were stimulated by incubation with phytohemagglutinin (PPIA) which binds to cell surface molecules, including the T-cell receptor. This stimulation results in proliferation which can be measured by incorporation of [^3 H]-thymidine into cellular DNA.
The immunosuppressive properties of the compounds of the present invention can be determined by adding various concentrations of the compounds to these cultures and measuring the effect on T-cell proliferation.
Suppression of Human T-Cell Proliferation Assay
Fresh LeukoPaks were obtained from the New York Blood Center, New York, N.Y. The cells, including erythrocytes and leukocytes, were diluted with Hank's Balanced Salt Solution (HBSS) (GIBCO, Grand Island, N.Y.) and layered over Lymphoprep (Nycomed Pharma AS, Oslo, Norway) in sterile 50 ml conical centrifuge tubes. Lymphocytes were isolated at the Hank's/Nycomed interface after centrifugation at 2000×g, 4° C. for 15 min. The lymphocytes were washed with Minimal Essential Medium (GIBCO) containing 2% fetal bovine serum (FBS) (Sigma Chemical Co., St. Louis, Mo.), 1% HEPES buffer (GIBCO) and 1% Penicillin-Stretomycin solution (GIBCO).
T-cells were further purified essentially by sheep erythrocyte (SRBC) rosetting as described by Morimoto et al., 1983, J. Immunol. 130:157. The isolated lymphocytes were adjusted to 2×10^7 cells/ml and 5 ml aliquots of the cell suspension were incubated for 10 minutes at room temperature with 5 ml of a 5% SRBC (Cappel, Organon Technika Corp., West Chester, Pa.) suspension. The cells were gently pelleted by centrifugation at 300 rpm for 10 minutes, followed by a 1 hour incubation at room temperature to allow rosette formation. The cells were gently resuspended,layered over Lymphoprep and centrifuged for 30 minutes at 500×g. The pellet, containing rosetted T-cells and SRBC was treated with ice cold buffered ammonium chloride (GIBCO) to lyse the erythrocytes. T-cells were washed twice with HBSS.
Purified T-cells were resuspended at 2×10^6 cells/ml in complete culture medium composed of RPMI-1640 (Whittaker Bioproducts, Walkerville, Md.) with 10% FBS (Sigma), 2 mM L-glutamine (GIBCO), 1% Penicillin-Streptomycin (GIBCO) and 15 mM HEPES (GIBCO). In 96-well plates (Becton Dickinson, Lincoln Park, N.J.), 0.1 ml aliquots of T-cell suspension were mixed with 0.05 ml of 40 μg/ml PPIA-M (Sigma). The compounds of this invention were dissolved in dimethylsulfoxide at 10 mM and various dilutions in complete medium were added in duplicate wells (0.05 ml/well). The plates were incubated at 37° C. in a humidified atmosphere of 5% carbon dioxide and 95% air for 72 hours.
Proliferation was assessed by measurement of [3H]-thymidine incorporation. During the last 6 hours of incubation, the cells were pulse labelled with 1 μCi/well of [3H]-thymidine (New England Nuclear, Boston, Mass.). The cells were harvested onto glass fiber paper using a plate harvester and the radioactivity incorporated into cellular DNA corresponding to individual wells was measured by standard liquid scintillation counting methods. The mean counts per minute (CPM) of replicate wells was calculated and linear regression analysis of mean CPM versus compound concentration was used to determine the concentration of compound which would inhibit [^3 H]-thymidine incorporation of T-cells by 50% (IC50).

[3] = system: NF-AT; conditions: Schreiber and Crabtree, 1992; cited from earlier work
[4] = system: IL-2 production; conditions: cited from earlier work
[5] = system: FK506 binding protein (FKBP); conditions: cited from earlier work
[6] = system: dogs; conditions: Collier et al., 1988; cited from earlier work
[7] = system: baboons; conditions: Collier et al., 1988; cited from earlier work
[8] = system: transplant patients; conditions: cited from earlier work

Sequence of FKBP (P62942 whole entry): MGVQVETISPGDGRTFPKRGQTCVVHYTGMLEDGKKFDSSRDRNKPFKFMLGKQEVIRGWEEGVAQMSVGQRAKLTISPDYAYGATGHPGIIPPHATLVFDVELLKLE

IC50 [1]: > 5 µM
SMILES: CC(C)C[C@@H](CN1CCC[C@H]1C(=O)NCCCCc1ccccc1)NS(=O)(=O)CS(C)(=O)=O [Example 9, 1-[2-(S)-(Methylsulfonylmethanesulfonylamino)-4-methylpentyl]-L-proline 4-Phenylbutylamide]
IC50 [2]: 4 µM

SMILES: C=CC[C@@H]1/C=C(\C)C[C@H](C)C[C@H](OC)[C@H]2O[C@@](O)(C(=O)C(=O)N3CCCC[C@H]3C(=O)O[C@H](/C(C)=C/[C@@H]3CC[C@@H](O)[C@H](OC)C3)[C@H](C)[C@@H](O)CC1=O)[C@H](C)C[C@@H]2OC [FK506]
NF-AT activity (in words) [3]: inhibited | IL-2 production (in words) [4]: inhibit IL-2 production | binding to FKBP (in words) [5]: bound | vasculitis [6]: severe vasculitis | vasculitis [7]: severe vasculitis | effectiveness in transplant patients who do not respond to CsA ([8]; Tucci et al., 1989): effective in some transplant patients who do not respond to CsA | absolute rate of clinical rejection vs current standard therapies ([8]; post-organ transplantation patients, Holechek, 1991): only slightly lower than with current standard therapies

Source: patent US5633277A, “Sulfonamide aminomethylene derivatives as immunosuppressants” (Miles Inc., priority 1995, dated 1997)
